From US20240124455A1, “TRICYCLIC COMPOUNDS AS ANTICANCER AGENTS” (JINGRUI BIOPHARMA CO., LTD., priority 2021, published 2024)

What was measured:
BRD4 (BD1) = target: T1, BRD4 (BD1) (Homo sapiens, UniProt O60885); assay: BRD4 (BD1) binding assay (HTRF); conditions: BRD4 (D1) with GST tag and biotin-labeled acetylated peptide
T1 construct: purchased Reaction Biology Company RD-11-157
Protocol: The BRD4 (BD1) biochemical binding assay was carried out by Sundia MediTech Co., Ltd. • Materials and suppliers: • BRD4(D1): Reaction Biology Company; catalog #: RD-11-157; batch #1319 • Positive control compound: AZD5153; Selleck, catalog #, S8344, batch #, 1 • Peptide: GL China; catalog #329934; batch #, P171229-JQ329934 • DMSO: Sigma; catalog #, D8418-1L; batch #, SHBG3288V • OptiPlate-384: PerkinElmer; catalog #6007270, batch #, 8240-17211 • Instruments: • Centrifuge (manufacturer: Eppendorf, model: 5430) • Microplate reader (manufacturer: Perkin Elmer, model: EnVision) • Sonic pipetting system (manufacturer: Labcyte, model: Echo® 550) • In the assay, the HTRF method uses an anti-GST antibody with a cryptate chelate-labeled europium element as the donor, and the d2 or XL665-labeled streptavidin (having high affinity with biotin) as the acceptor to study the interaction between BRD4 (D1) with GST tag and biotin-labeled acetylated peptide. When the donor and acceptor are close to each other due to the binding of BRD4 (D1) to the biotin-labeled peptide, the excitation of the donor triggers fluorescence resonance energy transfer (FRET) to the acceptor, which then emits fluorescence at a specific wavelength (665 nm). • General assay procedure: 20 nL of compound solution was transferred to the 384-well plate by Labcyte Echo® 550 liquid handler, and 5 μL of BRD4 (BD1) solution from Reaction Biology Company, RD-11-157, or the assay buffer was added to each well. After centrifuge for 1 minute and incubating 15 minutes at rt, the 5 μL peptide (GL China, Catalog #329934, Batch, P171229-JQ329934) was added to each well. After centrifuge for 1 minute at 1000 rpm, 10 μL detect solution was added to each well. After incubating for 60 minutes, centrifuging 1 minute, the signals were measured by Microplate reader. Data analysis: The inhibition percentage in the presence of the compound was calculated based on the following formula:
% Inhibition=(Signal_max−Signal sample/Signal_max−Signal_min)×100
Fitting the data in GrphaPad Prism V5.0 software with log(inhibitor) vs. response-Variable slope, the IC50 was obtained.

MV-4-11 = assay: Cell proliferation assay (Cell Titer-Glo); format: cell-based; conditions: Homo sapiens, MV4-11, 72 h, MV-4-11 cells, compound treatment 72 h, CellTiter-Glo
Protocol: In order to evaluate the activity of the compound on cells, the Cell Titer-Glo assay was used for detection. The cells were incubated in a 37° C. incubator and treated with compounds for 72 hours. At the end of the reaction, the number of living cells in the culture is measured by quantitative determination of ATP. ATP is an indicator of the metabolism of living cells. With Cell Titer-Glo, the luminescence signal produced by cell lysis is proportional to the amount of ATP present, and the amount of ATP is directly proportional to the number of cells in the culture. These signal ratios reflect the cell activity of the compound at that concentration in the well under this condition. • (1) Seeding cells • Trypsinize cells and count cell density with the automated cell counter. • Dilute cell suspension to required density according to seeding density. • Seed 100 ul cells into 96-well plate in growth medium according to the plate map. Medium only is used as background control (Min). • Incubate at 37° C., 5% CO2 overnight. • (2) Compound treatment • Make 200× compound solution in DMSO. • Dilute compounds with growth medium to 3× final concentration by addition of 3 ul 200× compounds to 197 ul growth medium. • Add 50 ul diluted compounds to cells and incubate at 37° C., 5% CO2 for 72 h. • (3) Measurement • Equilibrate the assay plate to room temperature prior to measurement. • Add 40 ul of CellTiter-Glo® Reagent into each well. • Mix contents for 2 minutes on an orbital shaker to induce cell lysis. • Incubate at room temperature for 60 minutes to stabilize luminescent signal. • Record luminescence on Envision. • (4) Data analysis • (1) Using GraphPad Prism 5. • (2) % Inh=(Max signal−Compound signal)/(Max signal−Min signal)×100. • (3) Max signal was obtained from the action of DMSO. • (4) Min signal was obtained from the action of medium only.

| Structure (SMILES) | IC50 (BRD4 (BD1)) [nM] | IC50 (MV-4-11) [nM] |
| --- | --- | --- |
| COC(=O)c1c2c(nn1C)c1ncc(-c3c(C)nnn3C)cc1n2C(c1ncccc1F)C1CCOCC1 (stereo not shown) [Example 9, Methyl 6-(1,4-dimethyl-1H-1,2,3-triazol-5-yl)-4-((3-fluoropyridin-2-yl)(tetrahydro-2H-pyran-4-yl)methyl)-2-methyl-2,4-dihydropyrazolo[3′,4′:4,5]pyrrolo[3,2-b]pyridine-3-carboxylate] | 0.51 | 1.52 |
| [2H]C([2H])([2H])c1nnn(C)c1-c1cnc2c3nn(C)c(C(=O)OC)c3n(C(c3ncccc3F)C3CCOCC3)c2c1 (stereo not shown) [Example 17, Methyl 4-((3-fluoropyridin-2-yl)(tetrahydro-2H-pyran-4-yl)methyl)-2-methyl-6-(1-methyl-4-(methyl-d3)-1H-1,2,3-triazol-5-yl)-2,4-dihydropyrazolo[3′,4′:4,5]pyrrolo[3,2-b]pyridine-3-carboxylate] | 0.59 | 3.3 |
